Laboratory results as given in patent US8101638B2, “6-substituted nicotinamide derivatives as opioid receptor antagonists” (Eli Lilly and Company, priority 2003, dated 2012).

Tests used:
Assay type in all cases: biochemical
mu opioid receptor (MOR) = mu opioid receptor (MOR) (Homo sapiens, UniProt P35372); assay: SPA-based GTP-γ-S binding assay, antagonist mode, mu opioid receptor; settings: antagonist assay against agonist DAMGO 1 micromolar; membranes; Kb by Cheng-Prusoff equation
Method: (§1) A scintillation proximity assay (SPA) based GTP-γ-S^35 assay format was developed based on previous opioid (Emmerson et al., J. Pharm Exp Ther 278, 1121, 1996; Horng et al., Society for Neuroscience Abstracts, 434.6, 2000) and muscarinic (DeLapp et al., JPET 289, 946, 1999) assay formats. Membranes were resuspended in 20 mM HEPES, 100 mM NaCl, 5 mM MgCl2, 1 mM DTT, and 1 mM EDTA. […] of GTP-γ-[35S], compound, membrane suspension (20 microgram/well), and wheat germ agglutinin coated SPA beads (1 mg/well) were added to clear bottom 96 well assay plates. GDP ([…]) was added to the membrane solution prior to addition to the assay plates. Plates were sealed and incubated for four hours at room temperature then placed in a refrigerator overnight to allow the beads to settle. Signal stability at 4° C. was determined to be >60 hours. Plates were warmed to room temperature and counted in a Wallac Microbeta scintillation counter. For antagonist assays, specific agonists were added at the following concentrations: (MOR) DAMGO 1 micromolar, (DOR) DPDPE 30 nM, (KOR) U69593 300 nM. Kb's were determined by Cheng-Prusoff equation (see Cheng and Prusoff, Biochem. Pharmacol. 22, 3099, 1973).

[1] = target: kappa opioid receptor (KOR) (Homo sapiens, UniProt P41145); assay: SPA-based GTP-γ-S binding assay, antagonist mode, kappa opioid receptor; settings: antagonist assay against agonist U69593 300 nM; membranes; Kb by Cheng-Prusoff equation
Method: as §1

[2] = target: delta opioid receptor (DOR) (Homo sapiens, UniProt P41143); assay: SPA-based GTP-γ-S binding assay, antagonist mode, delta opioid receptor; settings: antagonist assay against agonist DPDPE 30 nM; membranes; Kb by Cheng-Prusoff equation
Method: as §1

Sequence of mu opioid receptor (MOR) (P35372 whole entry): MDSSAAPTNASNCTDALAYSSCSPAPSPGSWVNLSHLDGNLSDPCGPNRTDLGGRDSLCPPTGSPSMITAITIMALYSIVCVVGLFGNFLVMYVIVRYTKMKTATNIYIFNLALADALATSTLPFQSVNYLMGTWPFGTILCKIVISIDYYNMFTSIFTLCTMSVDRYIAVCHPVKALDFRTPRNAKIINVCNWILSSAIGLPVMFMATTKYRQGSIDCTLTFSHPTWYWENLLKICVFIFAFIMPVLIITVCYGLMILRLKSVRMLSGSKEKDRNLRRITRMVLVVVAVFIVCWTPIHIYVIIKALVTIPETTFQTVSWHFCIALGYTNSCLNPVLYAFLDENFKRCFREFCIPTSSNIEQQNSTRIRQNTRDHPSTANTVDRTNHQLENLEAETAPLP
Sequence of kappa opioid receptor (KOR) (P41145 whole entry): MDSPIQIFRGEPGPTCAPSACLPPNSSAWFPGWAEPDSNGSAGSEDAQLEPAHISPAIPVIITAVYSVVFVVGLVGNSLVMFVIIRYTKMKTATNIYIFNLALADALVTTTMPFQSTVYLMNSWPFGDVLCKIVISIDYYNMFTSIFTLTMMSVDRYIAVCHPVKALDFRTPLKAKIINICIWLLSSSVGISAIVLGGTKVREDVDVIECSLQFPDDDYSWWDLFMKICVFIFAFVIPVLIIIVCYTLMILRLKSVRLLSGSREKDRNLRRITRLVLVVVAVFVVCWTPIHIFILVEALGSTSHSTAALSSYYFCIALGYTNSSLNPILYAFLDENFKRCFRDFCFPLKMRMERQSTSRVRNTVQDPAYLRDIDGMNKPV
Sequence of delta opioid receptor (DOR) (P41143 whole entry): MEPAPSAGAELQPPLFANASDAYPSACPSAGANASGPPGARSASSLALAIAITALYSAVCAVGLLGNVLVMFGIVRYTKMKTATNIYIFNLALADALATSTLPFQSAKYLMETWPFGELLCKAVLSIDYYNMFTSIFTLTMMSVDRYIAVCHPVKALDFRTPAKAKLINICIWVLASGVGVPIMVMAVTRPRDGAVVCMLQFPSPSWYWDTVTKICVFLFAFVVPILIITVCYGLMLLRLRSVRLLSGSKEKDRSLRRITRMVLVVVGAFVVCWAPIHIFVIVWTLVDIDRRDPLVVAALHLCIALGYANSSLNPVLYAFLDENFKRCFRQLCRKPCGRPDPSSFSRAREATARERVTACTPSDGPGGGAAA

SMILES | Kb (mu opioid receptor (MOR)) | Kb [1] | Kb [2]
CC(C)CCN(C)C1CCc2cc(Oc3ccc(C(N)=O)cn3)ccc21 (stereo not drawn) [Example 20] | 0.73 nM | 2.5 nM | 13.5 nM
NC(=O)c1ccc(Oc2ccc3c(c2)CCC3NCCc2ccc(F)cc2)nc1 (stereo not drawn) [Example 90, 6-{1-[2-(4-Fluoro-phenyl)-ethylamino]-indan-5-yloxy}-nicotinamide] | 0.4 nM | 9.2 nM | 14.6 nM

Results, then the molecule that gave them:

Kb (mu opioid receptor (MOR)) | Kb [1] | Kb [2] | SMILES
0.65 nM | 5.79 nM | 4.09 nM | CC(C)(C)CCNCC1CCCc2c(Oc3ccc(C(N)=O)cn3)cccc21 (stereo not drawn) [Example 202, 6-{5-[(3,3-Dimethyl-butylamino)-methyl]-5,6,7,8-tetrahydro-naphthalen-1-yloxy}-nicotinamide]
1.1 nM | 11.8 nM | 9.4 nM | CC(C)CCNCC1CCCc2c(Oc3ccc(C(N)=O)cn3)cccc21 (stereo not drawn) [Example 192, 6-{5-[(3-Methyl-butylamino)-methyl]-5,6,7,8-tetrahydro-naphthalen-1-yloxy}-nicotinamide]
0.5 nM | 76 nM | 7.9 nM | NC(=O)c1ccc(Oc2cccc3c2CCCC3CNCCC2CCCCC2)nc1 (stereo not drawn) [Example 195, 6-{5-[(2-Cyclohexyl-ethylamino)-methyl]-5,6,7,8-tetrahydro-naphthalen-1-yloxy}-nicotinamide]
